Results taken from patent publication US9226919B2, “Methods for dosing an orally active 1,2,4-oxadiazole” (PTC Therapeutics, Inc., priority 2006, dated 2016).

Test system: dystrophin
Assay: In vitro myotube culture of patients' primary muscle cells, dystrophin expression
Type: cell-based, human
Procedure: Studies are performed on muscle tissue and skin from patients to determine whether dystrophin production in primary muscle cultures from the patients corresponds with dystrophin production in vivo. […] Correlations of skin cell response with clinical activity may offer an easy-to-obtain predictive test in selecting future patients for therapy or for screening new agents for the treatment of DMD. Cells are cultured as follows. Biopsy material is stored during transport in human proliferation medium (or PBS), and on ice for longer time periods if necessary. If the tissue is not prepared within 24 hours, the material can be frozen in human proliferation medium containing 10% DMSO and stored in liquid nitrogen (or dry ice). At the time the tissue is to be prepared for setting up the myoblast culture, biopsy material is washed in PBS. PBS sufficient to keep the tissue moist is added into a culture dish. The biopsy material is minced thoroughly with razor blades, toward an almost homogeneous suspension. Approximately 2 ml of collegenase/dispase/CaCl2 solution per gram of tissue is added and mincing is continued for several minutes (e.g. for a muscle biopsy of 5×5×5 mm use 1 ml of enzyme solution). […] The myogenic cell content of the culture is determined by performing a desmin-staining. […]

`O=C(O)c1cccc(-c2noc(-c3ccccc3F)n2)c1` [3-[5-(2-fluoro-phenyl)-[1,2,4]oxadiazol-3-yl]-benzoic acid] was tested, and the “Dystrophin expression in myotube cultures” value (cultured in the presence of the compound) was “dose-dependent increase in dystrophin expression” and the “In Vitro Expression Response (dystrophin)” value (myotube culture of pre-treatment primary muscle cells of individual DMD patients) was “Yes”.
